Data published in article PMC10227015, “From a drug repositioning to a structure-based drug design approach to tackle acute lymphoblastic leukemia” (Nature Communications, 2023).
Where two headings read alike, the source gives them in different places.

Experiments:
dCK-C3S-S74E [1] = assay: Enzymatic assay (PK/LDH coupled), dC phosphorylation by dCK in the presence of UTP; type: biochemical, human; conditions: for effect on dCK enzymatic activity, activation versus inhibition: UTP 1 mM, dC 200 µM; for ENZYMATIC ASSAY (Activation/Inhibition): presence of UTP
Summary of the method: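 Activation versus inhibition was judged with 1 mM UTP, 200 µM dC and 2 μM dCK-C3S-S74E, using pyruvate kinase/lactate dehydrogenase coupling that tracks NADH fluorescence decrease at 460 nm. Buffer was HEPES pH 7.5 with MgCl2, KCl and DTT. Rates came from linear slopes, expressed relative to compound-free control.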

CCRF-CEM cell line = assay: dCK cellular assay: CCRF-CEM proliferation in the presence of dT and dC; type: cell-based, human; conditions: for activity at 0.00975 µM: 9.75 nM; for activity at 0.0195 µM: 19.5 nM; for activity at 0.039 µM: 39 nM; for activity at 0.078 µM: 78 nM; for activity at 0.156 µM: 156 nM; for activity at 0.312 µM: 312 nM; for activity at 0.625 µM: 625 nM; for activity at 1.25 µM: 1250 nM; for activity at 2.5 µM: 2500 nM
Summary of the method: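 Two conditions in T-ALL CCRF-CEM cells: compound only, and compound with thymidine blocking de novo synthesis and deoxycytidine rescuing via dCK. Metabolic dye fluorescence (560/590 nm) gives % proliferation vs DMSO; IC50s, mean ± SD of at least three triplicate runs.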

dCK-C3S-S74E [2] = assay: Thermal shift assay (TSA); conditions: for ΔTm, dCK thermal stabilization (TSA): 5 μM protein, 50 μM compound; for Thermal Shift Assay Mean (ΔTm (º)): Figure 2b; for THERMAL SHIFT ASSAY +Tm (°): mean ± SD; for ΔTm (º) (TSA): Figure 2a, mean
[3] = Homo sapiens, CCRF-CEM, dT 200 µM + dC 1 µM, read-out: Cell proliferation of the CCRF-CEM cell line Mean (% prolif)
[4] = Homo sapiens, CCRF-CEM, dT 200 µM + dC 1 µM, 72 h, read-out: IC50 cell proliferation (dCK cellular assay)

Chain of dCK-C3S-S74E (P27707 whole entry S74E, form open): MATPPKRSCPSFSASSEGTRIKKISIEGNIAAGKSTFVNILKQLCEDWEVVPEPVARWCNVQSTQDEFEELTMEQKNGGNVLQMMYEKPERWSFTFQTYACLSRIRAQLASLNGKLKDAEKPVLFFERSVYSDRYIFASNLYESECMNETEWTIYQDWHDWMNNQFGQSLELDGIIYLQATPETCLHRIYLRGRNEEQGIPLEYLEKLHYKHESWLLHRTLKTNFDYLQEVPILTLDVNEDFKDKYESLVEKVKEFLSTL

For CCCN(c1nc(-c2nc(N)cc(N)n2)cs1)c1cc(-c2ccc(CCN3CCN(C)CC3)cc2)ccc1C [OR0600], the “effect on dCK enzymatic activity, activation versus inhibition” value (dCK-C3S-S74E [1]) was “only exhibited enzymatic inhibition”, the “ENZYMATIC ASSAY (Activation/Inhibition)” value (dCK-C3S-S74E [1]) was “I” and the activity at 0.00975 µM (CCRF-CEM cell line; [3]) was 104%. The activity at 0.0195 µM (CCRF-CEM cell line; [3]) was 98.6%, the activity at 0.039 µM (CCRF-CEM cell line; [3]) was 91.6% and the activity at 0.078 µM (CCRF-CEM cell line; [3]) was 85.9%. It also gave an activity at 0.156 µM (CCRF-CEM cell line; [3]) of 76.2%, an activity at 0.312 µM (CCRF-CEM cell line; [3]) of 59.2% and an activity at 0.625 µM (CCRF-CEM cell line; [3]) of 40.4%. For the same molecule, the activity at 1.25 µM (CCRF-CEM cell line; [3]) was 22.2%, the activity at 2.5 µM (CCRF-CEM cell line; [3]) was 5.5% and the activity at 5 µM (CCRF-CEM cell line; Homo sapiens, CCRF-CEM, 5000 nM, dT 200 µM + dC 1 µM, read-out: Cell proliferation of the CCRF-CEM cell line Mean (% prolif)) was 0.133%. The IC50 (CCRF-CEM cell line; [4]) was 341 nM, the “ΔTm, dCK thermal stabilization (TSA)” value (dCK-C3S-S74E [2]) was 20 °C and the “Thermal Shift Assay Mean (ΔTm (º))” value (dCK-C3S-S74E [2]) was 20.0 º. The “THERMAL SHIFT ASSAY +Tm (°)” value (dCK-C3S-S74E [2]) was 20.0 ± 0.6 °.

CCCN(c1nc(-c2nc(N)cc(N)n2)cs1)c1cc(-c2ccc(CCN3CCN(C)CC3)nc2)ccc1C [OR0602] was tested, and the “ENZYMATIC ASSAY (Activation/Inhibition)” value (dCK-C3S-S74E [1]) was “I”, the activity at 0.004875 µM (CCRF-CEM cell line; Homo sapiens, CCRF-CEM, 4.875 nM, dT 200 µM + dC 1 µM, read-out: Cell proliferation of the CCRF-CEM cell line Mean (% prolif)) was 91.9% and the activity at 0.00975 µM (CCRF-CEM cell line; [3]) was 88%. For the same molecule, the activity at 0.0195 µM (CCRF-CEM cell line; [3]) was 81.5%, the activity at 0.039 µM (CCRF-CEM cell line; [3]) was 67.1% and the activity at 0.078 µM (CCRF-CEM cell line; [3]) was 58.6%. For the same molecule, the activity at 0.156 µM (CCRF-CEM cell line; [3]) was 47.4%, the activity at 0.312 µM (CCRF-CEM cell line; [3]) was 36.8% and the activity at 0.625 µM (CCRF-CEM cell line; [3]) was 27.7%. The activity at 1.25 µM (CCRF-CEM cell line; [3]) was 20.9%, the activity at 2.5 µM (CCRF-CEM cell line; [3]) was 12.7% and the IC50 (CCRF-CEM cell line; [4]) was 130 nM. The “fold improvement of cellular IC50” value (CCRF-CEM cell line; versus the preceding compound of the optimization) was ~ 2.4 fold, the “ΔTm, dCK thermal stabilization (TSA)” value (dCK-C3S-S74E [2]) was 19.5 °C and the “Thermal Shift Assay Mean (ΔTm (º))” value (dCK-C3S-S74E [2]) was 19.7 º. The “THERMAL SHIFT ASSAY +Tm (°)” value (dCK-C3S-S74E [2]) was 19.5 ± 0.5 °.

With CCCN(c1nc(-c2nc(N)cc(N)n2)cs1)c1cc(-c2ccc(S(=O)(=O)N3CCN(C)CC3)c(OC)c2)ccc1C [OR0635] the “ENZYMATIC ASSAY (Activation/Inhibition)” value (dCK-C3S-S74E [1]) was “I”, the activity at 0.00017 µM (CCRF-CEM cell line; Homo sapiens, CCRF-CEM, 0.17 nM, dT 200 µM + dC 1 µM, read-out: Cell proliferation of the CCRF-CEM cell line Mean (% prolif)) was 97% and the activity at 0.0005 µM (CCRF-CEM cell line; Homo sapiens, CCRF-CEM, 0.5 nM, dT 200 µM + dC 1 µM, read-out: Cell proliferation of the CCRF-CEM cell line Mean (% prolif)) was 85.1%. The activity at 0.0015 µM (CCRF-CEM cell line; Homo sapiens, CCRF-CEM, 1.5 nM, dT 200 µM + dC 1 µM, read-out: Cell proliferation of the CCRF-CEM cell line Mean (% prolif)) was 74.1%, the activity at 0.0046 µM (CCRF-CEM cell line; Homo sapiens, CCRF-CEM, 4.6 nM, dT 200 µM + dC 1 µM, read-out: Cell proliferation of the CCRF-CEM cell line Mean (% prolif)) was 62.3% and the activity at 0.014 µM (CCRF-CEM cell line; Homo sapiens, CCRF-CEM, 14 nM, dT 200 µM + dC 1 µM, read-out: Cell proliferation of the CCRF-CEM cell line Mean (% prolif)) was 48.1%. The activity at 0.041 µM (CCRF-CEM cell line; Homo sapiens, CCRF-CEM, 41 nM, dT 200 µM + dC 1 µM, read-out: Cell proliferation of the CCRF-CEM cell line Mean (% prolif)) was 35.9%, the activity at 0.123 µM (CCRF-CEM cell line; Homo sapiens, CCRF-CEM, 123 nM, dT 200 µM + dC 1 µM, read-out: Cell proliferation of the CCRF-CEM cell line Mean (% prolif)) was 24.4% and the activity at 0.37 µM (CCRF-CEM cell line; Homo sapiens, CCRF-CEM, 370 nM, dT 200 µM + dC 1 µM, read-out: Cell proliferation of the CCRF-CEM cell line Mean (% prolif)) was 17.8%. For the same molecule, the activity at 1.111 µM (CCRF-CEM cell line; Homo sapiens, CCRF-CEM, 1111 nM, dT 200 µM + dC 1 µM, read-out: Cell proliferation of the CCRF-CEM cell line Mean (% prolif)) was 14.8%, the activity at 3.333 µM (CCRF-CEM cell line; Homo sapiens, CCRF-CEM, 3333 nM, dT 200 µM + dC 1 µM, read-out: Cell proliferation of the CCRF-CEM cell line Mean (% prolif)) was 10.3% and the IC50 (CCRF-CEM cell line; Homo sapiens, read-out: dCK CELLULAR ASSAY IC50 (nM), CCRF-CEM, 200 µM dT and 1 µM dC, read-out: dCK […] ASSAY IC50) was 15.4 ± 10 nM. For the same molecule, the IC50 (CCRF-CEM cell line; [4]) was 15 nM, the IC50 (CCRF-CEM cell line; Homo sapiens, Figure 2a, CCRF-CEM cell line, mean, read-out: IC50 (nM) (Cell Prolif)) was 14 nM and the “ΔTm, dCK thermal stabilization (TSA)” value (dCK-C3S-S74E [2]) was 20.4 °C. The “ΔTm (º) (TSA)” value (dCK-C3S-S74E [2]) was 20.4 º, the “Thermal Shift Assay Mean (ΔTm (º))” value (dCK-C3S-S74E [2]) was 20.7 º and the “THERMAL SHIFT ASSAY +Tm (°)” value (dCK-C3S-S74E [2]) was 20.40 ± 0.9 °.

For CCCN(c1nc(-c2nc(N)cc(N)n2)cs1)c1cc(-c2ccc(S(=O)(=O)N3CCN(C)CC3)cc2C(F)(F)F)ccc1C [OR0642], the “effect on dCK enzymatic activity, activation versus inhibition” value (dCK-C3S-S74E [1]) was “inhibitor even at concentrations in the nanomolar range”, the “ENZYMATIC ASSAY (Activation/Inhibition)” value (dCK-C3S-S74E [1]) was “I” and the activity at 10 pM (CCRF-CEM cell line; Homo sapiens, CCRF-CEM, 0.01 nM, dT 200 µM + dC 1 µM, read-out: Cell proliferation of the CCRF-CEM cell line Mean (% prolif)) was 90.6%. The activity at 30 pM (CCRF-CEM cell line; Homo sapiens, CCRF-CEM, 0.03 nM, dT 200 µM + dC 1 µM, read-out: Cell proliferation of the CCRF-CEM cell line Mean (% prolif)) was 93.3%, the activity at 91 pM (CCRF-CEM cell line; Homo sapiens, CCRF-CEM, 0.091 nM, dT 200 µM + dC 1 µM, read-out: Cell proliferation of the CCRF-CEM cell line Mean (% prolif)) was 88.7% and the activity at 0.00027 µM (CCRF-CEM cell line; Homo sapiens, CCRF-CEM, 0.27 nM, dT 200 µM + dC 1 µM, read-out: Cell proliferation of the CCRF-CEM cell line Mean (% prolif)) was 87.2%. The activity at 0.00082 µM (CCRF-CEM cell line; Homo sapiens, CCRF-CEM, 0.82 nM, dT 200 µM + dC 1 µM, read-out: Cell proliferation of the CCRF-CEM cell line Mean (% prolif)) was 79.7%, the activity at 0.0025 µM (CCRF-CEM cell line; Homo sapiens, CCRF-CEM, 2.5 nM, dT 200 µM + dC 1 µM, read-out: Cell proliferation of the CCRF-CEM cell line Mean (% prolif)) was 68.2% and the activity at 0.0074 µM (CCRF-CEM cell line; Homo sapiens, CCRF-CEM, 7.4 nM, dT 200 µM + dC 1 µM, read-out: Cell proliferation of the CCRF-CEM cell line Mean (% prolif)) was 43.1%. The activity at 0.022 µM (CCRF-CEM cell line; Homo sapiens, CCRF-CEM, 22 nM, dT 200 µM + dC 1 µM, read-out: Cell proliferation of the CCRF-CEM cell line Mean (% prolif)) was 24.9%, the activity at 0.067 µM (CCRF-CEM cell line; Homo sapiens, CCRF-CEM, 67 nM, dT 200 µM + dC 1 µM, read-out: Cell proliferation of the CCRF-CEM cell line Mean (% prolif)) was 18% and the activity at 0.2 µM (CCRF-CEM cell line; Homo sapiens, CCRF-CEM, 200 nM, dT 200 µM + dC 1 µM, read-out: Cell proliferation of the CCRF-CEM cell line Mean (% prolif)) was 14.6%. The IC50 (CCRF-CEM cell line; [4]) was 2.2 nM, the “increased potency in the cell proliferation assay” value (CCRF-CEM cell line; compared with dCKi1) was “more than 1000 times” and the potency increase (CCRF-CEM cell line; compared with masitinib) was “more than 1000 times”. For the same molecule, the “ΔTm, dCK thermal stabilization (TSA)” value (dCK-C3S-S74E [2]) was 22.2 °C, the “ΔTm (º) (TSA)” value (dCK-C3S-S74E [2]) was 22.23 º and the “Thermal Shift Assay Mean (ΔTm (º))” value (dCK-C3S-S74E [2]) was 22.2 º. For the same molecule, the “improved dCK thermal stability” value (dCK-C3S-S74E [2]; compared to dCKi1) was 7.9 °C, the “improved dCK thermal stability” value (dCK-C3S-S74E [2]; compared to masitinib) was 15 °C and the “THERMAL SHIFT ASSAY +Tm (°)” value (dCK-C3S-S74E [2]) was 22.2 ± 0.9 °.
